Measured values taken from patent publication US9416141B2 (University of Washington through its Center for …, priority 2012, dated 2016).
Counter-ions that a name gives are not always drawn. Like-named read-outs stand apart in the source and are kept apart here.

System: hair cells
Assay: Hair cell toxicity assay in zebrafish (neomycin-induced hair cell death, DASPEI staining of neuromasts)
Type: in vivo
Details: for Emax at 8.3 µM: maximum observed @ 8.3 μM test compound; for Emax at 8.3 µM / Emax at 6.3 µM / Emax at 25 µM / Emax at 2.8 µM / Emax at 0.9 µM: 200 micromolar neomycin, read-out: Max HC Protection (HCmax, % hair cell survival); for EC50: zebrafish larvae 5-7 dpf, 1 h pre-treatment, then 200 micromolar neomycin + test compound 30 min, read-out: HC50 (concentration that would produce 50% hair cell survival); for Emax at 6.3 µM: maximum observed @ 6.3 μM test compound; for Emax at 25 µM: maximum observed @ 25 μM test compound; for Emax at 2.8 µM: maximum observed @ 2.8 μM test compound; for Emax at 0.9 µM: maximum observed @ 0.9 μM test compound
Outline: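 Zebrafish larvae 5-7 dpf pre-treated 1 h with compound (0.010-25 μM), then 30 min with 200 μM neomycin plus compound. DASPEI stained 10 neuromasts per fish, scored 0-2 (total 0-20), normalised to vehicle controls as % hair cell survival. HC50 linearly interpolated if survival reached ≥50%; HCmax is maximum survival.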

SMILES | EC50 (Danio rerio) [µM] | Emax at 25 µM (Danio rerio) [%] | other results
CC(C)(C)OC(=O)CCCCN1CCc2c(sc(NC(=O)Nc3ccc(Cl)cc3)c2C(N)=O)C1 [Example 19, tert-Butyl 5-{3-carbamoyl-2-[3-(4-chlorophenyl)ureido]-4,5-dihydrothieno[2,3-c]pyridin-6(7H)-yl}pentanoate] | < 1 |  | Emax at 8.3 µM (Danio rerio): 68%
CC(C)(C)OC(=O)NCCCN1CCc2c(sc(NC(=O)Nc3ccc4ccccc4c3)c2C(N)=O)C1 [Example 206, tert-Butyl N-[3-(3-carbamoyl-2-{[(naphthalen-2-yl)carbamoyl]amino}-4H,5H,6H,7H-thieno[2,3-c]pyridin-6-yl)propyl]carbamate] | 1 to 10 |  | Emax at 6.3 µM (Danio rerio): 88%
CC[N+]1(C)CCc2c(sc(NC(=O)Nc3ccc(C#N)cc3)c2C(N)=O)C1 (stereo not shown) [Example 150, 3-Carbamoyl-2-[3-(4-cyanophenyl)ureido]-6-ethyl-6-methyl-4,5,6,7-tetrahydrothieno[2,3-c]pyridin-6-ium iodide] |  | 43 | 
NC(=O)c1c(NC(=O)Nc2ccc(Cl)cc2)sc2c1CCN(CCCNC(=O)c1ccccc1)C2 [Example 212, 2-{[(4-chlorophenyl)carbamoyl]amino}-6-[3-(phenylformamido)propyl]-4H,5H,6H,7H-thieno[2,3-c]pyridine-3-carboxamide] | 1 to 10 | 103 | 
NC(=O)c1c(NC(=O)Nc2ccc(Cl)cc2)sc2c1CCN(CCCNC(=O)CCc1cccc3ccccc13)C2 [Example 214, 2-{[(4-chlorophenyl)carbamoyl]amino}-6-{3-[3-(naphthalen-1-yl)propanamido]propyl}-4H,5H,6H,7H-thieno[2,3-c]pyridine-3-carboxamide] | < 1 |  | Emax at 2.8 µM (Danio rerio): 95%
CC[N+]1(C)CCc2sc(NC(=O)Nc3ccc(Cl)cc3)c(C(N)=O)c2CC1 (stereo not shown) [Example 174, 3-Carbamoyl-2-[3-(4-chlorophenyl)ureido]-6-ethyl-6-methyl-5,6,7,8-tetrahydro-4H-thieno[2,3-d]azepin-6-ium iodide] | 1 to 10 | 74 | 
CCN1CCc2c(sc(NC(=O)Nc3ccc(Cl)cc3)c2C(=O)NC2COC2)C1 [Example 102, 2-[3-(4-Chlorophenyl)ureido]-6-ethyl-N-(oxetan-3-yl)-4,5,6,7-tetrahydrothieno[2,3-c]pyridine-3-carboxamide] |  | 22 | 
CCN1CCc2c(sc(NC(=O)Nc3cccc4c3ccn4C)c2C(N)=O)C1 [Example 84, 6-Ethyl-2-[3-(1-methyl-1H-indol-4-yl)ureido]-4,5,6,7-tetrahydrothieno[2,3-c]pyridine-3-carboxamide hydrochloride] |  | 4 | 
CC12CCC(C)(N1)c1sc(NC(=O)Nc3ccc(Cl)cc3)c(C(N)=O)c1C2 (racemic) [Example 123, (+/−)-2-[3-(4-Chlorophenyl)ureido]-5,8-dimethyl-5,6,7,8-tetrahydro-4H-5,8-epiminocyclohepta[b]thiophene-3-carboxamide trifluoroacetate] | < 1 |  | Emax at 2.8 µM (Danio rerio): 60%
CC(C)(C)OC(=O)NCCCN1CCc2c(sc(NC(=O)Nc3ccc(Cl)cc3)c2C(N)=O)C1 [Example 205, tert-butyl N-[3-(3-carbamoyl-2-{[(4-chlorophenyl)carbamoyl]amino}-4H,5H,6H,7H-thieno[2,3-c]pyridin-6-yl)propyl]carbamate] | 1 to 10 |  | Emax at 6.3 µM (Danio rerio): 81%
NC(=O)c1c(NC(=O)Nc2ccc(Cl)cc2)sc2c1CC1CCCCN1C2 (racemic) [Example 117, (+/−)-2-[3-(4-chlorophenyl)ureido]-4a,5,6,7,8,10-hexahydro-4H-thieno[3,2-b]quinolizine-3-carboxamide hydrochloride] | 1 to 10 | 78 | 
CCN1CCc2c(sc(NC(=O)Nc3ccc(Cl)cc3)c2-c2nc(C)no2)C1 [Example 103, 1-(4-chlorophenyl)-3-[6-ethyl-3-(3-methyl-1,2,4-oxadiazol-5-yl)-4,5,6,7-tetrahydrothieno[2,3-c]pyridin-2-yl]urea hydrochloride] |  |  | Emax at 0.9 µM (Danio rerio): 12%
NC(=O)c1c(NC(=O)Nc2ccc(Cl)cc2)sc2c1CCN(C1COC1)C2 [Example 6, 2-[3-(4-Chlorophenyl)ureido]-6-(oxetan-3-yl)-4,5,6,7-tetrahydrothieno[2,3-c]pyridine-3-carboxamide hydrochloride] | 1 to 10 | 72 | 
CC(C)(O)CN1CCc2c(sc(NC(=O)Nc3ccc(Cl)cc3)c2C(N)=O)C1 [Example 119, 2-[3-(4-chlorophenyl)ureido]-6-(2-hydroxy-2-methylpropyl)-4,5,6,7-tetrahydrothieno[2,3-c]pyridine-3-carboxamide] | 1 to 10 | 65 | 
CC(C)(C)OC(=O)C[N+]1(C)CCc2c(sc(NC(=O)Nc3ccc(Cl)cc3)c2C(N)=O)C1 (stereo not shown) [Example 147, 6-(2-tert-Butoxy-2-oxoethyl)-3-carbamoyl-2-[3-(4-chlorophenyl)ureido]-6-methyl-4,5,6,7-tetrahydrothieno[2,3-c]pyridin-6-ium iodide] | < 1 |  | Emax at 2.8 µM (Danio rerio): 90%
NC(=O)c1c(NC(=O)Nc2ccc(Cl)cc2)sc2c1CCN(CC1CCC1)C2 [Example 12, 2-[3-(4-Chlorophenyl)ureido]-6-(cyclobutylmethyl)-4,5,6,7-tetrahydrothieno[2,3-c]pyridine-3-carboxamide hydrochloride] | 1 to 10 |  | Emax at 8.3 µM (Danio rerio): 73%
CC(C)[N+]1(C)CCc2c(sc(NC(=O)Nc3ccc(Cl)cc3)c2C(N)=O)C1 (stereo not shown) [Example 191, 3-Carbamoyl-2-[3-(4-chlorophenyl)ureido]-6-isopropyl-6-methyl-4,5,6,7-tetrahydrothieno[2,3-c]pyridin-6-ium iodide] | < 1 |  | Emax at 8.3 µM (Danio rerio): 80%
NC(=O)c1c(NC(=O)Nc2ccc(Cl)cc2)sc2c1CC1CCC2N1 (racemic) [Example 124, (+/−)-2-[3-(4-chlorophenyl)ureido]-5,6,7,8-tetrahydro-4H-5,8-epiminocyclohepta[b]thiophene-3-carboxamide hydrochloride] |  |  | EC50: < 1 µM
CCN1CCc2c(sc(NC(=O)Nc3ccc(Oc4ccccc4)cc3)c2C(N)=O)C1 [Example 225, 6-ethyl-2-{[(4-phenoxyphenyl)carbamoyl]amino}-4H,5H,6H,7H-thieno[2,3-c]pyridine-3-carboxamide] | 1 to 10 | 91 | 
CC(C)NC(=O)CC[N+]1(C)CCc2c(sc(NC(=O)Nc3ccc(Cl)cc3)c2C(N)=O)C1 (stereo not shown) [Example 164, 3-Carbamoyl-2-[3-(4-chlorophenyl)ureido]-6-[3-(isopropylamino)-3-oxopropyl]-6-methyl-4,5,6,7-tetrahydrothieno[2,3-c]pyridin-6-ium trifluoroacetate] | 1 to 10 |  | Emax at 2.8 µM (Danio rerio): 60%
CC(C)(C)c1ccc(CCC(=O)NCCCN2CCc3c(sc(NC(=O)Nc4ccc(Cl)cc4)c3C(N)=O)C2)cc1 [Example 213, 6-{3-[3-(4-tert-butylphenyl)propanamido]propyl}-2-{[(4-chlorophenyl)carbamoyl]amino}-4H,5H,6H,7H-thieno[2,3-c]pyridine-3-carboxamide] | < 1 |  | Emax at 2.8 µM (Danio rerio): 92%
CCN1CCc2sc(NC(=O)Nc3ccc(Cl)cc3)c(C(N)=O)c2C1 [Example 116, 2-[3-(4-Chlorophenyl)ureido]-5-ethyl-4,5,6,7-tetrahydrothieno[3,2-c]pyridine-3-carboxamide hydrochloride] | 1 to 10 | 82 | 
COC(=O)C(C)(C)CN1C2CCC1c1sc(NC(=O)Nc3ccc(Cl)cc3)c(C(N)=O)c1C2 (racemic) [Example 134, (+/−)-Methyl 3-{3-carbamoyl-2-[3-(4-chlorophenyl)ureido]-5,6,7,8-tetrahydro-4H-5,8-epiminocyclohepta[b]thiophen-9-yl}-2,2-dimethylpropanoate hydrochloride] |  |  | Emax at 0.9 µM (Danio rerio): 11%
C[N+]1(CC2CCC2)CCc2c(sc(NC(=O)Nc3ccc4ccccc4c3)c2C(N)=O)C1 (stereo not shown) [Example 176, 3-Carbamoyl-6-(cyclobutylmethyl)-6-methyl-2-[3-(naphthalen-2-yl)ureido]-4,5,6,7-tetrahydrothieno[2,3-c]pyridin-6-ium iodide] | < 1 |  | Emax at 8.3 µM (Danio rerio): 100%
CCN1CCc2c(sc(NC(N)=O)c2C(N)=O)C1 [Example 107, 6-ethyl-2-ureido-4,5,6,7-tetrahydrothieno[2,3-c]pyridine-3-carboxamide hydrochloride] |  |  | Emax at 2.8 µM (Danio rerio): 36%
CCN1CCc2c(sc(NC(=O)Nc3ccc4c(c3)CCCC4)c2C(N)=O)C1 [Example 227, 6-ethyl-2-{[(5,6,7,8-tetrahydronaphthalen-2-yl)carbamoyl]amino}-4H,5H,6H,7H-thieno[2,3-c]pyridine-3-carboxamide] | 1 to 10 | 80 | 
CC(C)(C)OC(=O)CCCCCN1CCc2c(sc(NC(=O)Nc3ccc(Cl)cc3)c2C(N)=O)C1 [Example 18, tert-Butyl 6-{3-carbamoyl-2-[3-(4-chlorophenyl)ureido]-4,5-dihydrothieno[2,3-c]pyridin-6(7H)-yl}hexanoate] | < 1 |  | Emax at 2.8 µM (Danio rerio): 64%
CC(C)CN1CCc2c(sc(NC(=O)Nc3ccc4ccccc4c3)c2C(N)=O)C1 [Example 34, 6-Isobutyl-2-[3-(naphthalen-2-yl)ureido]-4,5,6,7-tetrahydrothieno[2,3-c]pyridine-3-carboxamide hydrochloride] | 1 to 10 | 87 | 
